# From ChEMBL document CHEMBL1151306, “Inhibitory activity of unsaturated fatty acids and anacardic acids toward soluble tissue factor-factor VIIa complex” (J Nat Prod, 1998)
# Where “and” joins values, the source holds several entries; their conditions need not be identical. Equal values may be shown once.
# How the values were obtained:
# Trypsin [1] = target: T1, Trypsin (Sus scrofa, UniProt P00761)
# Description: (§1) Inhibition of pig pancreatic trypsin after 15 mins
# [2] = target: Coagulation factor VII/tissue factor (Homo sapiens, UniProt P08709)
# Description: Inhibition of amidolytic activity of human tissue factor/human factor 7a
# physchem = settings: octanol/water
# Description: (§2) Octanol-water partition coefficient, log P of the compound
# Trypsin [3] = target: T1, Trypsin; remark: listed apart in the source
# Description: as §1
# [4] = octanol/water
# Description: as §2
# T1 sequence (P00761 whole entry): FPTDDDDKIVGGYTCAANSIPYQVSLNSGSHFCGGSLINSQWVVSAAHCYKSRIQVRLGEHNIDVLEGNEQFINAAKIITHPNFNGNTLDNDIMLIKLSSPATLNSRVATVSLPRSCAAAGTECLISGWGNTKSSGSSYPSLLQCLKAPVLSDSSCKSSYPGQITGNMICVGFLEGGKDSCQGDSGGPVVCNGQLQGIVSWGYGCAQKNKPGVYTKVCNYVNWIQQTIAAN
# Sequence of Coagulation factor VII/tissue factor (P08709 61-212 limits assumed): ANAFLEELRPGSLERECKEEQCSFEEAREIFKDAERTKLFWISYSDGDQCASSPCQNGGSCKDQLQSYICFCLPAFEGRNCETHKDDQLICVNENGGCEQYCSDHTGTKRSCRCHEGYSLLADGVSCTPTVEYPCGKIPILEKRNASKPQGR
# Sequence of Coagulation factor VII/tissue factor (P08709 213-466 limits assumed): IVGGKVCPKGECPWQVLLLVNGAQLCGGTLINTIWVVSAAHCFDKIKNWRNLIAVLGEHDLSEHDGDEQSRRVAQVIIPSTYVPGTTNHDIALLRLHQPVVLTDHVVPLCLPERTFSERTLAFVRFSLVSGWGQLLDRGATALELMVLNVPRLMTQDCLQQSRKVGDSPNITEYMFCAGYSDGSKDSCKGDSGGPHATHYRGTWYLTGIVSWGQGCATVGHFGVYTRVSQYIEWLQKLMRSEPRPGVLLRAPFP
# Sequence of Coagulation factor VII/tissue factor (P13726 33-295 partner limits assumed): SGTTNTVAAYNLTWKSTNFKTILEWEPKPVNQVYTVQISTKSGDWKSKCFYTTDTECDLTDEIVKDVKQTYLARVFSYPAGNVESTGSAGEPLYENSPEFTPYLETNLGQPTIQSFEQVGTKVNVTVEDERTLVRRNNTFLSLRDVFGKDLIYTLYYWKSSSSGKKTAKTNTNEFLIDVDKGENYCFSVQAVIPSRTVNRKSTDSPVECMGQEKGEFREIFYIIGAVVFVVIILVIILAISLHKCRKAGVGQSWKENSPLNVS
Compound,IC50 (Trypsin [1]) [µM],IC50 [2],logP (physchem; logP),IC50 (Trypsin [3]) [µM],logP [4],logP (physchem)
CC/C=C\C/C=C\C/C=C\CCCCCCCC(=O)O [LINOLENIC ACID],> 200,30 µM,2.51,–,–,–
CCCCCC/C=C\CCCCCCCC(=O)O [PALMITOLEIC ACID],> 200,120 µM,2.73,–,–,–
CCCCC/C=C\C/C=C\C/C=C\C/C=C\CCCC(=O)O [ARACHIDONIC ACID],> 200,105 µM,–,–,–,2.9
CC/C=C\C/C=C\C/C=C\CCCCCCCCCC(=O)O,> 200,100 µM,3.3,–,–,–
CCCCC/C=C\C/C=C\CCCCCCCC(=O)O [LINOLEIC ACID],> 200,41 µM,3,–,–,–
CCCCC/C=C\C/C=C\C/C=C\CCCCC(=O)O [GAMOLENIC ACID],> 200,30 µM,2.55,–,–,–
CCCCCC/C=C\CCCCCCCc1cccc(O)c1C(=O)O [GINGKOLIC ACID],> 200,32 µM,3.99,–,–,–
CCCC/C=C\CCCCCCCC(=O)O [MYRISTOLEIC ACID],> 200,66 µM,–,–,–,–
CC/C=C\C/C=C\C/C=C\C/C=C\C/C=C\CCCC(=O)O [ICOSAPENT],> 200,78 µM,2.48,–,–,–

# Second part, led by results:
IC50 (Trypsin [1]) [µM],IC50 [2],logP (physchem; logP),IC50 (Trypsin [3]) [µM],logP [4],Compound,logP (physchem)
> 200,52 µM,2.41,–,–,CCCCC/C=C\C/C=C\CCCCCCCCCC(=O)O,–
> 200,80 µM,3.54,–,–,CCCCCCCC/C=C\CCCCCCCC(=O)O [OLEIC ACID],–
> 200,33 µM,3.72,–,–,CCCCC/C=C\C/C=C\CCCCCCCc1cccc(O)c1C(=O)O,–
> 200,75 µM and 30 µM,3.5,> 200,3.28,CCCCC/C=C\C/C=C\C/C=C\CCCCCCC(=O)O [DIHOMO-GAMMA-LINOLENIC ACID],–
